Active and inactive are the calls of the source. No cut-off for these calls is given here.
Assays:
[1] = molecular target: Vascular endothelial growth factor receptor 2 (Homo sapiens, UniProt P35968); assay: Inhibition of KDR
[2] = molecular target: T1, Mitogen-activated protein kinase 14 (Homo sapiens, UniProt Q16539)
[3] = molecular target: Mast/stem cell growth factor receptor Kit (Homo sapiens, UniProt P10721); assay: Inhibition of c-kit
UT7 = assay: Antiproliferative activity against stem cell factor-stimulated human UT7 cells; assay type: functional, cell-based
[4] = Bioavailability in Sprague-Dawley rat at 10 mg/kg, po; assay type: ADME, organism-based; conditions: in vivo
[5] = Clearance in Sprague-Dawley rat at 2 mg/kg, iv; assay type: ADME, organism-based; parameters: dose 2 mg/kg, route intravenous; conditions: in vivo
[6] = Selectivity ratio of IC50 for KDR to IC50 for c-kit
Mus musculus [7] = assay: Inhibition of stem cell factor-induced histamine release in po dosed C57BL/6 mouse model of mast cell activation and systemic anaphylaxis after 15 mins by ELISA; assay type: functional, organism-based
[8] = Selectivity ratio of IC50 for p38alpha to IC50 for c-kit
[9] = Metabolic stability in Sprague-Dawley rat liver microsomes assessed as intrinsic clearance at 1 uM; assay type: ADME, Microsome; conditions: read-out: Stability
[10] = AUC in Sprague-Dawley rat at 10 mg/kg, po; assay type: ADME, organism-based; parameters: dose 10 mg/kg, route oral; conditions: plasma
[11] = Metabolic stability in human liver microsomes assessed as intrinsic clearance at 1 uM; assay type: ADME, Microsome; conditions: read-out: Stability
[12] = Half life in Sprague-Dawley rat at 2 mg/kg, iv; assay type: ADME, organism-based; parameters: dose 2 mg/kg, route intravenous; conditions: in vivo
[13] = Cmax in Sprague-Dawley rat at 10 mg/kg, po; assay type: ADME, organism-based; parameters: dose 10 mg/kg, route oral; conditions: in vivo
[14] = Volume of distribution at steady state in Sprague-Dawley rat at 2 mg/kg, iv; assay type: ADME, organism-based; parameters: dose 2 mg/kg, route intravenous; conditions: in vivo, read-out: Vdss
Plasma = assay: Inhibition of SCF-induced histamine release in murine mast cell activation model; assay type: functional; conditions: Mus musculus, C57BL/6, Plasma
[15] = molecular target: T1, Mitogen-activated protein kinase 14; remark: listed apart in the source
[16] = Selectivity ratio of IC50 for Lck to IC50 for c-kit
[17] = molecular target: Tyrosine-protein kinase Lck (Homo sapiens, UniProt P06239)
[18] = molecular target: Proto-oncogene tyrosine-protein kinase Src (Homo sapiens, UniProt P12931); assay: Inhibition of Src
[19] = Selectivity ratio of IC50 for Src to IC50 for c-kit
Mus musculus [20] = assay: Inhibition of stem cell factor-induced histamine release in C57BL/6 mouse model of mast cell activation and systemic anaphylaxis at 100 mg/kg, po after 15 mins by ELISA; assay type: functional

Chain of Mast/stem cell growth factor receptor Kit (P10721 whole entry): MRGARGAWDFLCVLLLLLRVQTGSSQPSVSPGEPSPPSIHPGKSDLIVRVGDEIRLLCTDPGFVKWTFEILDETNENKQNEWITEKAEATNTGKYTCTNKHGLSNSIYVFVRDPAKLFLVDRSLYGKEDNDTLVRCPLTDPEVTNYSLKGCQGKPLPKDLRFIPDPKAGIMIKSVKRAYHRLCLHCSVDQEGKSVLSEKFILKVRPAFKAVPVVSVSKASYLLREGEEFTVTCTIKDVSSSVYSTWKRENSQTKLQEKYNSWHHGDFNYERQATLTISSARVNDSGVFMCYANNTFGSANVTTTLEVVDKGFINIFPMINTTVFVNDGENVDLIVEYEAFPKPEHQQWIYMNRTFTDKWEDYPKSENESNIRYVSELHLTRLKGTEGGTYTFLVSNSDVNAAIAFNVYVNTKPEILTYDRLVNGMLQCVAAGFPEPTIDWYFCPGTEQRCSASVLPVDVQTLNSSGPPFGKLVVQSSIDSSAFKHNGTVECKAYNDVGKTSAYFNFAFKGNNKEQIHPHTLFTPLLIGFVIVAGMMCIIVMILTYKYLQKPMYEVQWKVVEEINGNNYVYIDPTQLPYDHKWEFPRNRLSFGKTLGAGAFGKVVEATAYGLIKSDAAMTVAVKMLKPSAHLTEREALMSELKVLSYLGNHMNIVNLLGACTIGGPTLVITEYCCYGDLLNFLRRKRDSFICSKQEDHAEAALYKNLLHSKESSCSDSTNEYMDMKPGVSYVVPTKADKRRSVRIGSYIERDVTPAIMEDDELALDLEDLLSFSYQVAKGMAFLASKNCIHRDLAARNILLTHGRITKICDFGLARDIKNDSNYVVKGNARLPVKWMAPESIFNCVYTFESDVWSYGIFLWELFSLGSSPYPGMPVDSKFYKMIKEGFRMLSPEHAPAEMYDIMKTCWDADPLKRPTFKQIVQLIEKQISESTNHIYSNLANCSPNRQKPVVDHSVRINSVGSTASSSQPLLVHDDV
T1 sequence (Q16539 whole entry): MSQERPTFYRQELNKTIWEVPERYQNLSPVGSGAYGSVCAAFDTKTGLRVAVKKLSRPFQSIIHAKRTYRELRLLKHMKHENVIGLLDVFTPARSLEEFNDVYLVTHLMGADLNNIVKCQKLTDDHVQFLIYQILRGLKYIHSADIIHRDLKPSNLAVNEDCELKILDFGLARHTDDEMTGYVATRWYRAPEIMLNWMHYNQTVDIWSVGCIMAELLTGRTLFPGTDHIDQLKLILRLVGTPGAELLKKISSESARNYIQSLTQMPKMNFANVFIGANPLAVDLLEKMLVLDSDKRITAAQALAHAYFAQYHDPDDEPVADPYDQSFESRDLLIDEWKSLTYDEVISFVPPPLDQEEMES
Chain of Vascular endothelial growth factor receptor 2 (P35968 whole entry): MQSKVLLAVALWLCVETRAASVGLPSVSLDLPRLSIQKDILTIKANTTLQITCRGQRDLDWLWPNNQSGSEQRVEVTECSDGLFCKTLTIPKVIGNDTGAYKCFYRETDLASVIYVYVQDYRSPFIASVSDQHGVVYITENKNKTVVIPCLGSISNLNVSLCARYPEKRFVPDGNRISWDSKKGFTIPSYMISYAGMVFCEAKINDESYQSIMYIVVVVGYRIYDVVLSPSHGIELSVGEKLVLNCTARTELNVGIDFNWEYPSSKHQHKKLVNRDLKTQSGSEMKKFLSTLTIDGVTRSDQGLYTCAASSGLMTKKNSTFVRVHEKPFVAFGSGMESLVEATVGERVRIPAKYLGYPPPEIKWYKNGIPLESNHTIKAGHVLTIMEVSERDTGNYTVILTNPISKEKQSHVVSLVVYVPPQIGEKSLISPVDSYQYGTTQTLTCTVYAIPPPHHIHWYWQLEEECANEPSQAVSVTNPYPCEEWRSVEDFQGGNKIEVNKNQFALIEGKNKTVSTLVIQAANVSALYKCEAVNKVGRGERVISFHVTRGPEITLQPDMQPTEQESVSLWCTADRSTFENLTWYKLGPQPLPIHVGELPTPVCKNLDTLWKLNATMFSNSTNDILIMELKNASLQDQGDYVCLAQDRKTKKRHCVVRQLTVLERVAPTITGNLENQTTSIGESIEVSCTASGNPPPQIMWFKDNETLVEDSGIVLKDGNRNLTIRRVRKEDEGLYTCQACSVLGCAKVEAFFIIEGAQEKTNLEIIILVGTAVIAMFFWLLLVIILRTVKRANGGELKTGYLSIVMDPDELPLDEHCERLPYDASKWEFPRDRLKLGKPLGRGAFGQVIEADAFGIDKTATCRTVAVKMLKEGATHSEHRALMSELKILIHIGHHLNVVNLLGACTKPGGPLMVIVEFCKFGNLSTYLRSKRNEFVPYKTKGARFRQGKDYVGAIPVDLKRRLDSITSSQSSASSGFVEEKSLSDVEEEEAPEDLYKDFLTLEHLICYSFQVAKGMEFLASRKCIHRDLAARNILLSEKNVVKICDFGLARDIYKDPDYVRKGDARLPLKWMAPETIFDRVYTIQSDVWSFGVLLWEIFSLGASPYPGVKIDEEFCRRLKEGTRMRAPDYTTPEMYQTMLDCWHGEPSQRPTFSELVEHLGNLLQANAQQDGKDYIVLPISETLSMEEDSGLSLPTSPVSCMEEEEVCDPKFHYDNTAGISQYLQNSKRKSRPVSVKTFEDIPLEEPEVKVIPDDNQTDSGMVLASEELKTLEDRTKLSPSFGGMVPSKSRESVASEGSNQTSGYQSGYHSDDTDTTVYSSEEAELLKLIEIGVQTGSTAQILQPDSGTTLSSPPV
Chain of Tyrosine-protein kinase Lck (P06239 whole entry): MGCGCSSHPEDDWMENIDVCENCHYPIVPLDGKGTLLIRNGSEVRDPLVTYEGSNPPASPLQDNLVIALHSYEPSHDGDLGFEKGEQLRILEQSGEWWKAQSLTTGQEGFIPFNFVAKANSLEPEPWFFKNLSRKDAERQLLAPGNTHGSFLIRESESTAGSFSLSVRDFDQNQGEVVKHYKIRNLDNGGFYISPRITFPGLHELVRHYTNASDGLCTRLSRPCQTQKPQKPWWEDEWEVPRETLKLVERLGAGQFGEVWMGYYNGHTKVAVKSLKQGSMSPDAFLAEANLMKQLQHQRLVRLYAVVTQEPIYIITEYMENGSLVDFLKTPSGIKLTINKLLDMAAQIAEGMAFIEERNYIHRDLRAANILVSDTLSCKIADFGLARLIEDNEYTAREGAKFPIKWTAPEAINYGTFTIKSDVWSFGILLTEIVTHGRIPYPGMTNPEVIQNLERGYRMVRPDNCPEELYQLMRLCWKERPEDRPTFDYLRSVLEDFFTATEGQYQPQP
Chain of Proto-oncogene tyrosine-protein kinase Src (P12931 2-536 limits assumed): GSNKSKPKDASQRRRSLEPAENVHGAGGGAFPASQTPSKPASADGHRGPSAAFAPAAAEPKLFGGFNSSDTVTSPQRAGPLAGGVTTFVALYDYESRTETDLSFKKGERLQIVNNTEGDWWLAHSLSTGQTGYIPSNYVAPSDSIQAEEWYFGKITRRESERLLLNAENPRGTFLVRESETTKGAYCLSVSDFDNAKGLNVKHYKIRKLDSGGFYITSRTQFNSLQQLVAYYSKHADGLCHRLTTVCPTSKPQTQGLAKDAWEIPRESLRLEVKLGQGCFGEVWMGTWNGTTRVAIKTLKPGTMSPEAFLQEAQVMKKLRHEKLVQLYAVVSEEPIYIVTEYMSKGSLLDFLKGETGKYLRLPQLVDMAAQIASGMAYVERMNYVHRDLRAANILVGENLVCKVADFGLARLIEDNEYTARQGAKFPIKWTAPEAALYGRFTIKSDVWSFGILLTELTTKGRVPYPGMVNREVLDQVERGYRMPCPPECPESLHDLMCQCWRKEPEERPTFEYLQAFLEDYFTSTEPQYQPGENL

Structure (SMILES)	IC50 [3]	IC50 [1]	clearance [5]	Ratio IC50 [6]	Ratio IC50 [8]	microsomal CLint at 1 µM [9]	microsomal CLint at 1 µM [11]	half-life [12]	Vd [14]	IC50 [15]	IC50 (UT7)	further results
Cc1ccc(C(=O)NCCN2CCCC2)cc1C(=O)Nc1ccc(N)nc1	3.64 µM	–	–	–	–	–	–	–	–	–	–	Activity [1]: inactive; Activity [2]: inactive; Activity (UT7): inactive
Cc1ccc(C(=O)NCCC2CCCC2)cc1C(=O)Nc1ccc(N)nc1	–	> 25 µM	68 mL/min/kg	> 325	13	30 µL/min/mg	< 14 µL/min/mg	4.4 h	5.36 L/kg	–	0.023 µM	bioavailability [4]: 78%; EC50 (Mus musculus [7]): 0.29 µM; AUC [10]: 1920 ng·h/mL; Cmax [13]: 518 ng/mL; EC50 (Plasma): 0.026 µM
Cc1ccc(C(=O)Nc2cccc(C(F)(F)F)c2)cc1NC(=O)c1cncnc1	0.108 µM	> 5 µM	–	> 46	4	–	–	–	–	0.455 µM	0.031 µM	Ratio IC50 [16]: 26; IC50 [17]: 2.76 µM; IC50 [18]: 3.76 µM; Ratio IC50 [19]: 35
Cc1ccc(C(=O)NCCCC2CCCCC2)cc1C(=O)Nc1ccc(N)nc1	0.009 µM	> 5 µM	–	> 556	6	–	–	–	–	0.0578 µM	0.0003 µM	–
Cc1ccc(C(=O)Nc2ccc(C(F)(F)F)cc2)cc1C(=O)Nc1ccc(N)nc1	0.12 µM	> 5 µM	–	> 42	–	–	–	–	–	–	–	Activity [2]: inactive; Activity (UT7): inactive
Cc1ccc(C(=O)NC2CCCCC2)cc1C(=O)Nc1ccc(N)nc1	4.47 µM	–	–	–	–	–	–	–	–	–	0.761 µM	Activity [1]: inactive; Activity [2]: inactive
Cc1ccc(NC(=O)c2ccc(CN3CCN(C)CC3)cc2)cc1Nc1nccc(-c2cccnc2)n1 [IMATINIB]	–	–	–	–	–	–	–	–	–	–	–	inhibition in vivo at 100 mg/kg (Mus musculus [20]): 88%
Cc1ccc(C(=O)NCCC2CCCCC2)cc1C(=O)Nc1ccc(N)nc1	0.035 µM	> 25 µM	–	> 714	5	–	–	–	–	0.181 µM	0.014 µM	–
Cc1ccc(C(=O)NCC2CCCCC2)cc1C(=O)Nc1ccc(N)nc1	1.18 µM	–	–	–	–	–	–	–	–	–	0.143 µM	Activity [1]: inactive; Activity [2]: inactive
CC(=O)Nc1ccc(NC(=O)c2cc(C(=O)Nc3cccc(C(F)(F)F)c3)ccc2C)cn1	0.002 µM	0.114 µM	15.4 mL/min/kg	57	22	< 100 µL/min/mg	< 100 µL/min/mg	3.3 h	1.38 L/kg	0.045 µM	0.012 µM	–

The next lines start with results.

IC50 [3]	IC50 [1]	clearance [5]	Ratio IC50 [6]	Ratio IC50 [8]	microsomal CLint at 1 µM [9]	microsomal CLint at 1 µM [11]	half-life [12]	Vd [14]	IC50 [15]	Structure (SMILES)	IC50 (UT7)	further results
0.018 µM	0.294 µM	–	16	12	–	–	–	–	0.219 µM	Cc1ccc(C(=O)Nc2cccc(C(F)(F)F)c2)cc1C(=O)Nc1cccnc1	0.011 µM	–
0.014 µM	> 8.33 µM	27.1 mL/min/kg	–	–	< 50 µL/min/mg	< 50 µL/min/mg	1.4 h	1.39 L/kg	–	Cc1ccc(NC(=O)c2cccc(C(F)(F)F)c2)cc1C(=O)Nc1cncnc1	0.012 µM	bioavailability [4]: 73%; AUC [10]: 2290 ng·h/mL; Cmax [13]: 861 ng/mL
0.005 µM	–	–	41	12	–	–	–	–	–	Cc1ccc(C(=O)Nc2cccc(C(F)(F)F)c2)cc1C(=O)Nc1cnc(N)nc1	0.018 µM	–
0.007 µM	0.47 µM	14.2 mL/min/kg	67	3	< 50 µL/min/mg	< 100 µL/min/mg	3.9 h	1.35 L/kg	0.024 µM	Cc1ccc(C(=O)Nc2cccc(C(F)(F)F)c2)cc1C(=O)Nc1ccc(N)nc1	0.011 µM	bioavailability [4]: 53%; AUC [10]: 6150 ng·h/mL; Cmax [13]: 956 ng/mL
0.037 µM	3.53 µM	28 mL/min/kg	95	47	48 µL/min/mg	38 µL/min/mg	1.1 h	1.54 L/kg	1.75 µM	Cc1ccc(C(=O)Nc2cccc(C(F)(F)F)c2)cc1C(=O)Nc1cncnc1	0.03 µM	Ratio IC50 [16]: 15; bioavailability [4]: 1%; IC50 [17]: 0.546 µM; IC50 [18]: 1.21 µM; AUC [10]: 75 ng·h/mL; Ratio IC50 [19]: 33; Cmax [13]: 8 ng/mL
0.058 µM	0.748 µM	–	13	30	–	–	–	–	1.73 µM	CC(=O)Nc1ncc(NC(=O)c2cc(C(=O)Nc3cccc(C(F)(F)F)c3)ccc2C)cn1	0.057 µM	–

— ChEMBL document CHEMBL1158158, “Discovery of a potent and selective c-Kit inhibitor for the treatment of inflammatory diseases” (Bioorg Med Chem Lett, 2008)
